Measurements: patent US9376418B2, “Substituted pyridine spleen tyrosine kinase (SYK) inhibitors” (Merck Sharp & Dohme Corp., priority 2012, dated 2016)

Biological target: T1, recombinant human GST-SYK (Homo sapiens, UniProt P43405)
T1 construct: purchased Carna Biosciences 08-176
Test: Homogeneous Time-Resolved Fluorescence (HTRF) assay for the recombinant human Syk enzyme
Assay type: biochemical
Conditions: HTRF assay, recombinant human GST-SYK; IC50 given as class symbols; read-out: rhSYK Activity
In short: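 GST-hSYK ([…]) was preincubated with inhibitor (0.1% DMSO final) for 10 minutes at room temperature in 15 mM Tris-HCl pH 7.5, 0.01% tween 20, 2 mM DTT. Biotinylated peptide (250 nM), 5 mM magnesium and 25 μM ATP started a 45-minute room-temperature reaction, read by time-resolved fluorescence.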

| SMILES | IC50 [µM] |
| --- | --- |
| Cc1cc(Nc2nccc(C(F)(F)F)n2)cc(-c2ccc(N3CCC[C@@H]3C(=O)O)nc2)c1 [Example 7.110, 1-[5-(3-methyl-5-{[4-(trifluoromethyl)pyrimidin-2-yl]amino}phenyl)pyridin-2-yl]-D-prolilne] | < 0.1 |
| Cc1cc(Nc2nccc(C(F)(F)F)n2)cc(-c2ccc(N[C@@H](CC(C)C)C(=O)O)nc2)c1 [Example 7.111, N-[5-(3-methyl-5-{[4-(trifluoromethyl)pyrimidin-2-yl]amino}phenyl)pyridin-2-yl]-L-leucine] | < 0.1 |
| Cc1cc(Nc2nccc(C(F)(F)F)n2)cc(-c2ccc(N[C@@H](Cc3c[nH]cn3)C(=O)O)nc2)c1 [Example 7.112, N-[5-(3-methyl-5-{[4-(trifluoromethyl)pyrimidin-2-yl]amino}phenyl)pyridin-2-yl]-L-histidine] | < 0.1 |
| Cc1cc(Nc2nccc(C(F)(F)F)n2)cc(-c2ccc(NCCCO)nc2)c1 [Example 7.113, 3-{[5-(3-methyl-5-{[4-(trifluoromethyl)pyrimidin-2-yl]amino}phenyl)pyridin-2-yl]amino}propan-1-ol] | < 0.1 |
| Cc1cc(Nc2nccc(C(F)(F)F)n2)cc(-c2ccc(NC(C)(C)C#N)nc2)c1 [Example 7.114, 2-methyl-2-{[5-(3-methyl-5-{[4-(trifluoromethyl)pyrimidin-2-yl]amino}phenyl)pyridin-2-yl]amino}propanenitrile] | < 0.1 |
| Cc1cc(Nc2nccc(C(F)(F)F)n2)cc(-c2ccc(NC(C)(C#N)C(C)(C)C)nc2)c1 (centres unmarked) [Example 7.115, 2,3,3-trimethyl-2-{[5-(3-methyl-5-{[4-(trifluoromethyl)pyrimidin-2-yl]amino}phenyl)pyridin-2-yl]amino}butanenitrile] | 0.1 to 1 |
| Cc1cc(Nc2nccc(C(F)(F)F)n2)cc(-c2ccc(N3CCCC4(CCCCO4)C3)nc2)c1 (centres unmarked) [Example 7.116, N-{3-methyl-5-[6-(1-oxa-8-azaspiro[5.5]undec-8-yl)pyridin-3-yl]phenyl}-4-(trifluoromethyl)pyrimidin-2-amine] | 0.1 to 1 |
| Cc1cc(Nc2nccc(C(F)(F)F)n2)cc(-c2ccc(NC(C)(C#N)CC(F)(F)F)nc2)c1 (centres unmarked) [Example 7.117, 4,4,4-trifluoro-2-methyl-2-{[5-(3-methyl-5-{[4-(trifluoromethyl)pyrimidin-2-yl]amino}phenyl)pyridin-2-yl]amino}butanenitrile] | 0.1 to 1 |
| CCC(C)(C#N)Nc1ccc(-c2cc(C)cc(Nc3nccc(C(F)(F)F)n3)c2)cn1 (centres unmarked) [Example 7.118, 2-methyl-2-{[5-(3-methyl-5-{[4-(trifluoromethyl)pyrimidin-2-yl]amino}phenyl)pyridin-2-yl]amino}butanenitrile] | < 0.1 |
| Cc1cc(Nc2nccc(C(F)(F)F)n2)cc(-c2ccc(N3CCCC[C@H]3C(=O)O)nc2)c1 [Example 7.120, (2S)-1-[5-(3-methyl-5-{[4-(trifluoromethyl)pyrimidin-2-yl]amino}phenyl)pyridin-2-yl]piperidine-2-carboxylic acid] | < 0.1 |
| Cc1cc(Nc2nccc(C(F)(F)F)n2)cc(-c2ccc(N3CCC[C@@]3(C)C(=O)O)nc2)c1 [Example 7.121, 2-methyl-1-[5-(3-methyl-5-{[4-(trifluoromethyl)pyrimidin-2-yl]amino}phenyl)pyridin-2-yl]-L-proline] | < 0.1 |
| Cc1cc(Nc2nccc(C(F)(F)F)n2)cc(-c2cnc(NC(C)(C)C(=O)O)c(C(F)(F)F)c2)c1 [Example 7.123, 2-methyl-N-[5-(3-methyl-5-{[4-(trifluoromethyl)pyrimidin-2-yl]amino}phenyl)-3-(trifluoromethyl)pyridin-2-yl]alanine] | < 0.1 |
| O=C1NCCC1Nc1ccc(-c2cccc(Nc3nccc(C(F)(F)F)n3)c2)cn1 (centres unmarked) [Example 7.124, 3-{[5-(3-{[4-(trifluoromethyl)pyrimidin-2-yl]amino}phenyl)pyridin-2-yl]amino}pyrrolidin-2-one] | < 0.1 |

More lines, now with the values ahead:

| IC50 [µM] | SMILES |
| --- | --- |
| < 0.1 | CC(C)(Nc1ccc(-c2cccc(Nc3nccc(C(F)(F)F)n3)c2)cn1)C(=O)O [Example 7.125, 2-methyl-N-[5-(3-{[4-(trifluoromethyl)pyrimidin-2-yl]amino}phenyl)pyridin-2-yl]alanine] |
| < 0.1 | O=C(O)[C@@H]1CCN1c1ccc(-c2cccc(Nc3nccc(C(F)(F)F)n3)c2)cn1 [Example 7.126, (2S)-1-[5-(3-{[4-(trifluoromethyl)pyrimidin-2-yl]amino}phenyl)pyridin-2-yl]azetidine-2-carboxylic acid] |
| < 0.1 | O=C(O)[C@@H]1CCN1c1ccc(-c2cc(F)cc(Nc3nccc(C(F)(F)F)n3)c2)cn1 [Example 7.127, (2S)-1-[5-(3-fluoro-5-{[4-(trifluoromethyl)pyrimidin-2-yl]amino}phenyl)pyridin-2-yl]azetidine-2-carboxylic acid] |
| < 0.1 | Cc1cc(Nc2nccc(C(F)(F)F)n2)cc(-c2ccc(NC3CNC(=O)C3)nc2)c1 (centres unmarked) [Example 7.128, 4-{[5-(3-methyl-5-{[4-(trifluoromethyl)pyrimidin-2-yl]amino}phenyl)pyridin-2-yl]amino}pyrrolidin-2-one] |
| < 0.1 | Cc1cc(Nc2nccc(C(F)(F)F)n2)cc(-c2ccc(NC3(C(=O)O)CC3)nc2)c1 [Example 7.129, 1-{[5-(3-methyl-5-{[4-(trifluoromethyl)pyrimidin-2-yl]amino}phenyl)pyridin-2-yl]amino}cyclopropanecarboxylic acid] |
| < 0.1 | Cc1cc(Nc2nccc(C(F)(F)F)n2)cc(-c2ccc(N3CCCCC3CC(=O)O)nc2)c1 (centres unmarked) [Example 7.132, {1-[5-(3-methyl-5-{[4-(trifluoromethyl)pyrimidin-2-yl]amino}phenyl)pyridin-2-yl]piperidin-2-yl}acetic acid] |
| < 0.1 | Cc1cc(Nc2nccc(C(F)(F)F)n2)cc(-c2ccc(N3CC(C(=O)O)C3)nc2)c1 [Example 7.133, 1-[5-(3-methyl-5-{[4-(trifluoromethyl)pyrimidin-2-yl]amino}phenyl)pyridin-2-yl]azetidine-3-carboxylic acid] |
| < 0.1 | Cc1cc(Nc2nccc(C(F)(F)F)n2)cc(-c2ccc(N3CC[C@H](O)[C@H]3C(=O)O)nc2)c1 [Example 7.134, (3S)-3-hydroxy-1-[5-(3-methyl-5-{[4-(trifluoromethyl)pyrimidin-2-yl]amino}phenyl)pyridin-2-yl]-L-proline] |
| < 0.1 | Cc1cc(Nc2nccc(C(F)(F)F)n2)cc(-c2ccc(N3CCCC(C(=O)O)C3)nc2)c1 (centres unmarked) [Example 7.135, 1-[5-(3-methyl-5-{[4-(trifluoromethyl)pyrimidin-2-yl]amino}phenyl)pyridin-2-yl]piperidine-3-carboxylic acid] |
| < 0.1 | Cc1cc(Nc2nccc(C(F)(F)F)n2)cc(-c2ccc(N3CCC(C(=O)O)CC3)nc2)c1 [Example 7.136, 1-[5-(3-methyl-5-{[4-(trifluoromethyl)pyrimidin-2-yl]amino}phenyl)pyridin-2-yl]piperidine-4-carboxylic acid] |
| < 0.1 | Cc1cc(Nc2nccc(C(F)(F)F)n2)cc(-c2ccc(N3CSCC3C(=O)O)nc2)c1 (centres unmarked) [Example 7.137, 3-[5-(3-methyl-5-{[4-(trifluoromethyl)pyrimidin-2-yl]amino}phenyl)pyridin-2-yl]-1,3-thiazolidine-4-carboxylic acid] |
| < 0.1 | Cc1cc(Nc2nccc(C(F)(F)F)n2)cc(-c2ccc(NCC(=O)NCC(=O)O)nc2)c1 [Example 7.138, N-[5-(3-methyl-5-{[4-(trifluoromethyl)pyrimidin-2-yl]amino}phenyl)pyridin-2-yl]glycylglycine] |
| < 0.1 | Cc1cc(Nc2nccc(C(F)(F)F)n2)cc(-c2ccc(N3CCN(CCCC(=O)O)CC3)nc2)c1 [Example 7.139, 4-{4-[5-(3-methyl-5-{[4-(trifluoromethyl)pyrimidin-2-yl]amino}phenyl)pyridin-2-yl]piperazin-1-yl}butanoic acid] |
| < 0.1 | Cc1cc(Nc2nccc(C(F)(F)F)n2)cc(-c2ccc(N3CCN(CC(=O)O)CC3)nc2)c1 [Example 7.140, {4-[5-(3-methyl-5-{[4-(trifluoromethyl)pyrimidin-2-yl]amino}phenyl)pyridin-2-yl]piperazin-1-yl}acetic acid] |
| < 0.1 | Cc1cc(Nc2nccc(C(F)(F)F)n2)cc(-c2ccc(N3CCC(C(=O)N4CCC(C(=O)O)CC4)CC3)nc2)c1 [Example 7.141, 1-({1-[5-(3-methyl-5-{[4-(trifluoromethyl)pyrimidin-2-yl]amino}phenyl)pyridin-2-yl]piperidin-4-yl}carbonyl)piperidine-4-carboxylic acid] |
| < 0.1 | Cc1cc(Nc2nccc(C(F)(F)F)n2)cc(-c2ccc(N[C@H]3CC[C@@H](C(=O)O)CC3)nc2)c1 [Example 7.142, cis-4-{[5-(3-methyl-5-{[4-(trifluoromethyl)pyrimidin-2-yl]amino}phenyl)pyridin-2-yl]amino}cyclohexanecarboxylic acid] |
| < 0.1 | Cc1cc(Nc2nccc(C(F)(F)F)n2)cc(-c2ccc(N[C@H]3CC[C@H](C(=O)O)CC3)nc2)c1 [Example 7.143, trans-4-{[5-(3-methyl-5-{[4-(trifluoromethyl)pyrimidin-2-yl]amino}phenyl)pyridin-2-yl]amino}cyclohexanecarboxylic acid] |
| < 0.1 | Cc1cc(Nc2nccc(C(F)(F)F)n2)cc(-c2ccc(NC[C@H]3CC[C@H](C(=O)O)CC3)nc2)c1 [Example 7.144, trans-4-({[5-(3-methyl-5-{[4-(trifluoromethyl)pyrimidin-2-yl]amino}phenyl)pyridin-2-yl]amino}methyl)cyclohexanecarboxylic acid] |
| < 0.1 | Cc1cc(Nc2nccc(C(F)(F)F)n2)cc(-c2ccc(N3CC(C4CCC(C(=O)O)CC4)C3)nc2)c1 (centres unmarked) [Example 7.145, 4-{1-[5-(3-methyl-5-{[4-(trifluoromethyl)pyrimidin-2-yl]amino}phenyl)pyridin-2-yl]azetidin-3-yl}cyclohexanecarboxylic acid] |
